Results from the NIST ThermoML archive (doi:10.1021/je301282p).

Key:
[1] = 308.15 K, Drop volume
[2] = xn = mol fraction of the nth substance listed; details: 308.15 K, Drop volume

Cc1ccc(C)cc1 [1,4-dimethylbenzene]
Details	surface tension liquid-gas [mN/m]
[1]	26.29

Cc1ccc(C)cc1 [1,4-dimethylbenzene] + CCCCCCCC
[2]
Details	surface tension liquid-gas [mN/m]
x1 = 0.0488	20.02
x1 = 0.109	20.25
x1 = 0.1953	20.52
x1 = 0.2973	20.96
x1 = 0.3959	21.41
x1 = 0.4978	21.91
x1 = 0.5503	22.2
x1 = 0.5935	22.46
x1 = 0.6966	23.11
x1 = 0.8004	23.93
x1 = 0.9017	24.92
x1 = 0.9504	25.5

Cc1ccc(C)cc1 [1,4-dimethylbenzene] + CCCCCCCCCC
[2]
Details	surface tension liquid-gas [mN/m]
x1 = 0.1047	22.18
x1 = 0.2152	22.39
x1 = 0.2977	22.57
x1 = 0.3945	22.79
x1 = 0.4993	23.11
x1 = 0.549	23.28
x1 = 0.5997	23.46
x1 = 0.7004	23.88
x1 = 0.8018	24.47
x1 = 0.9004	25.2
x1 = 0.9501	25.67

Cc1ccc(C)cc1 [1,4-dimethylbenzene] + COC(=O)OC
[2]
Details	surface tension liquid-gas [mN/m]
x2 = 0.0503	26.19
x2 = 0.1937	25.97
x2 = 0.2988	25.84
x2 = 0.4013	25.76
x2 = 0.5016	25.7
x2 = 0.6032	25.67
x2 = 0.7029	25.67
x2 = 0.7964	25.74
x2 = 0.8945	25.98
x2 = 0.9442	26.13

CCCCCCCCCC [decane]
Details	surface tension liquid-gas [mN/m]
[1]	22.1

CCCCCCCCCC [decane] + COC(=O)OC
[2]
Details	surface tension liquid-gas [mN/m]
x2 = 0.0512	21.95
x2 = 0.09	21.92
x2 = 0.2006	21.9
x2 = 0.2853	21.92
x2 = 0.3971	21.97
x2 = 0.4949	22.11
x2 = 0.5987	22.01
x2 = 0.6988	22.18
x2 = 0.7971	22.54
x2 = 0.8983	23.81
x2 = 0.9505	24.82

CCOC(=O)OCC [diethyl carbonate]
Details	surface tension liquid-gas [mN/m]
[1]	24.02

CCOC(=O)OCC [diethyl carbonate] + CCCCCCCC
[2]
Details	surface tension liquid-gas [mN/m]
x1 = 0.049	19.83
x1 = 0.1008	19.89
x1 = 0.2	19.91
x1 = 0.2969	20.05
x1 = 0.3972	20.26
x1 = 0.4971	20.5
x1 = 0.5495	20.63
x1 = 0.5991	20.79
x1 = 0.695	21.16
x1 = 0.7938	21.7
x1 = 0.8978	22.63
x1 = 0.9504	23.33

CCOC(=O)OCC [diethyl carbonate] + CCCCCCCCCC
[2]
Details	surface tension liquid-gas [mN/m]
x1 = 0.0512	21.9
x1 = 0.0983	21.84
x1 = 0.1997	21.75
x1 = 0.2968	21.78
x1 = 0.406	21.84
x1 = 0.499	21.88
x1 = 0.5621	21.96
x1 = 0.5994	21.99
x1 = 0.6966	22.19
x1 = 0.7951	22.49
x1 = 0.9018	23.1
x1 = 0.9511	23.5

CCOC(=O)OCC [diethyl carbonate] + Cc1ccc(C)cc1
[2]
Details	surface tension liquid-gas [mN/m]
x1 = 0.0995	25.98
x1 = 0.2009	25.68
x1 = 0.2985	25.42
x1 = 0.3971	25.18
x1 = 0.4956	24.94
x1 = 0.5433	24.83
x1 = 0.6007	24.7
x1 = 0.6457	24.6
x1 = 0.6995	24.49
x1 = 0.7986	24.3
x1 = 0.899	24.12
x1 = 0.9497	24.06

COC(=O)OC [dimethyl carbonate]
Details	surface tension liquid-gas [mN/m]
[1]	26.55

COC(=O)OC [dimethyl carbonate] + CCCCCCCC
[2]
Details	surface tension liquid-gas [mN/m]
x1 = 0.0503	19.8
x1 = 0.0976	19.78
x1 = 0.196	19.85
x1 = 0.2941	19.93
x1 = 0.3969	20.09
x1 = 0.495	20.25
x1 = 0.5455	20.39
x1 = 0.5971	20.54
x1 = 0.6977	20.8
x1 = 0.7977	21.47
x1 = 0.8983	23.04
x1 = 0.9492	24.53

CCCCCCCC [octane]
Details	surface tension liquid-gas [mN/m]
[1]	19.9
